Tests used:
Format in all cases: in vivo
[1] = tested on: crabgrass, large (large crabgrass, Digitaria sanguinalis); assay: Test A pre-/postemergence: crabgrass, large; settings: for Crabgrass, Large plant response rating: Postemergence; for Plant response rating, Crabgrass, Large: Preemergence
Summary of the method: (§1)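 Visual 0–100 injury ratings (0 no effect, 100 complete control) taken about ten days after treatment, relative to untreated controls. Preemergence treatment was a directed soil spray; postemergence plants were 2–10 cm tall at one- to two-leaf stage. Soil: loam/sand blend.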

[2] = tested on: foxtail, giant (giant foxtail, Setaria faberii); assay: Test A pre-/postemergence: foxtail, giant; settings: for Foxtail, Giant plant response rating: Postemergence; for Plant response rating, Foxtail, Giant: Preemergence
Summary of the method: as §1

[3] = tested on: morningglory (Ipomoea spp.); assay: Test A pre-/postemergence: morningglory
Summary of the method: as §1

[4] = tested on: sedge, umbrella (small-flower umbrella sedge Cyperus difformis); assay: Test B flooded paddy: sedge, umbrella; settings: Flood; 250 g ai/ha; applied to paddy water at 2-leaf stage; visually evaluated after 13 to 15 days
Summary of the method: (§2)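 Flooded-pot test: compound dosed into 3 cm of standing water above soil when plants had two leaves. Visual control ratings (0–100) versus untreated plants after 13–15 d.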

[5] = tested on: ducksalad (Heteranthera limosa); assay: Test B flooded paddy: ducksalad; settings: Flood; 250 g ai/ha; applied to paddy water at 2-leaf stage; visually evaluated after 13 to 15 days
Summary of the method: as §2

kochia (Kochia scoparia) = assay: Test C pre-/postemergence: kochia
Summary of the method: (§3)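 Preemergence on seeds in loam/sand, postemergence on 2–18 cm (1–4-leaf) plants in peat-based medium; compounds in non-phytotoxic solvent with surfactant. After 13–15 days in greenhouse, visual rating versus controls, 0 (no effect) to 100 (complete control).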

[6] = tested on: nutsedge, yellow (yellow nutsedge, Cyperus esculentus); assay: Test C pre-/postemergence: nutsedge, yellow
Summary of the method: as §3

[7] = tested on: ragweed (common ragweed, Ambrosia elation); assay: Test C pre-/postemergence: ragweed
Summary of the method: as §3

soybean (Glycine max) = assay: Test C pre-/postemergence: soybean
Summary of the method: as §3

[8] = tested on: velvetleaf (Abutilon theophrasti); assay: Test C pre-/postemergence: velvetleaf
Summary of the method: as §3

[9] = 125 g ai/ha, 0 to 100 scale, 0 is no effect, 100 is complete control
[10] = 500 g ai/ha, visual rating on 0 to 100 scale (0 no effect, 100 complete control), approximately ten days
[11] = 125 g ai/ha, 0 to 100 scale (0 no effect, 100 complete control)
[12] = 500 g ai/ha, 0 to 100 scale, 0 is no effect, 100 is complete control
[13] = Postemergence, 125 g ai/ha, 0 to 100 scale, 0 is no effect, 100 is complete control
[14] = Postemergence, 500 g ai/ha, visual rating on 0 to 100 scale (0 no effect, 100 complete control), approximately ten days
[15] = Preemergence, 125 g ai/ha, 0 to 100 scale (0 no effect, 100 complete control)
[16] = Postemergence, 31 g ai/ha, scale 0 to 100 (0 no effect, 100 complete control)
[17] = Postemergence, 62 g ai/ha, scale 0 to 100 (0 no effect, 100 complete control)
[18] = Postemergence, 125 g ai/ha, scale 0 to 100, 0 no effect, 100 complete control
[19] = Postemergence, 250 g ai/ha, scale 0 to 100
[20] = Preemergence, 31 g ai/ha, scale of 0 to 100, 0 is no effect, 100 is complete control
[21] = Preemergence, 62 g ai/ha, scale of 0 to 100, 0 is no effect, 100 is complete control
[22] = Preemergence, 125 g ai/ha, scale 0 to 100, 0 no effect, 100 complete control
[23] = Preemergence, 250 g ai/ha, scale 0 to 100, 0 no effect, 100 complete control
[24] = 125 g ai/ha, 0 to 100 scale where 0 is no effect and 100 is complete control
[25] = 500 g ai/ha, 0 to 100 scale (0 no effect, 100 complete control)

FC(F)Oc1nn(-c2ccc(C(F)(F)F)cc2)nc1Cc1ccnc(C(F)(F)F)c1 [Compound 26]
Crabgrass, Large plant response rating [1, 9]: 90
Crabgrass, Large plant response rating [1, 10]: 90
Plant response rating, Crabgrass, Large [1, 11]: 100
Plant response rating, Crabgrass, Large [1, 12]: 100
Foxtail, Giant plant response rating [2, 9]: 90
Foxtail, Giant plant response rating [2, 10]: 90
Plant response rating, Foxtail, Giant [2, 11]: 100
Plant response rating, Foxtail, Giant [2, 12]: 100
Morningglory plant response rating [3, 13]: 100
Morningglory plant response rating [3, 14]: 100
Plant response rating, Morningglory [3, 15]: 80
Plant response rating, Morningglory ([3]; Preemergence, 500 g ai/ha, 0 to 100 scale, 0 is no effect, 100 is complete control): 80
Plant response rating, Sedge, Umbrella (0 to 100 scale, 0 is no effect, 100 is complete control) [4]: 90
Plant response rating, Ducksalad (0 to 100 scale, 0 is no effect, 100 is complete control) [5]: 40
Plant response rating, Kochia (kochia (Kochia scoparia); [16]): 75
Plant response rating, Kochia (kochia (Kochia scoparia); [17]): 95
Plant response rating, Kochia (kochia (Kochia scoparia); [18]): 95
Plant response rating, Kochia (kochia (Kochia scoparia); [19]): 98
Plant response rating, Kochia (kochia (Kochia scoparia); [20]): 45
Plant response rating, Kochia (kochia (Kochia scoparia); [21]): 95
Plant response rating, Kochia (kochia (Kochia scoparia); [22]): 95
Plant response rating, Kochia (kochia (Kochia scoparia); [23]): 98
Plant response rating, Nutsedge, Yellow [6, 16]: 10
Plant response rating, Nutsedge, Yellow [6, 17]: 10
Plant response rating, Nutsedge, Yellow [6, 18]: 15
Plant response rating, Nutsedge, Yellow [6, 19]: 15
Plant response rating, Nutsedge, Yellow [6, 20]: 0
Plant response rating, Nutsedge, Yellow [6, 21]: 0
Plant response rating, Nutsedge, Yellow [6, 22]: 0
Plant response rating, Nutsedge, Yellow [6, 23]: 0
Plant response rating, Ragweed [7, 16]: 40
Plant response rating, Ragweed [7, 17]: 55
Plant response rating, Ragweed [7, 18]: 90
Plant response rating, Ragweed [7, 19]: 95
Plant response rating, Ragweed [7, 20]: 15
Plant response rating, Ragweed [7, 21]: 35
Plant response rating, Ragweed [7, 22]: 50
Plant response rating, Ragweed [7, 23]: 75
Plant response rating, Soybean (soybean (Glycine max); [16]): 35
Plant response rating, Soybean (soybean (Glycine max); [17]): 40
Plant response rating, Soybean (soybean (Glycine max); [18]): 50
Plant response rating, Soybean (soybean (Glycine max); [19]): 55
Plant response rating, Soybean (soybean (Glycine max); [20]): 0
Plant response rating, Soybean (soybean (Glycine max); [21]): 5
Plant response rating, Soybean (soybean (Glycine max); [22]): 5
Plant response rating, Soybean (soybean (Glycine max); [23]): 15
Plant response rating, Velvetleaf [8, 16]: 25
Plant response rating, Velvetleaf [8, 17]: 50
Plant response rating, Velvetleaf [8, 18]: 55
Plant response rating, Velvetleaf [8, 19]: 85
Plant response rating, Velvetleaf [8, 20]: 25
Plant response rating, Velvetleaf [8, 21]: 35
Plant response rating, Velvetleaf [8, 22]: 75
Plant response rating, Velvetleaf [8, 23]: 100

FC(F)(F)c1ccc(-n2nc(Cl)c(Cc3ccnc(C(F)(F)F)c3)n2)cc1 [Compound 28]
Crabgrass, Large plant response rating [1, 9]: 70
Crabgrass, Large plant response rating [1, 10]: 90
Plant response rating, Crabgrass, Large [1, 11]: 30
Plant response rating, Crabgrass, Large [1, 12]: 90
Foxtail, Giant plant response rating [2, 9]: 90
Foxtail, Giant plant response rating [2, 10]: 90
Plant response rating, Foxtail, Giant [2, 11]: 100
Plant response rating, Foxtail, Giant [2, 12]: 100
Morningglory plant response rating [3, 13]: 100
Morningglory plant response rating [3, 14]: 100
Plant response rating, Morningglory [3, 15]: 20
Plant response rating, Sedge, Umbrella (0 to 100 scale, 0 is no effect, 100 is complete control) [4]: 95
Plant response rating, Ducksalad (0 to 100 scale, 0 is no effect, 100 is complete control) [5]: 95
Plant response rating, Kochia (kochia (Kochia scoparia); [16]): 40
Plant response rating, Kochia (kochia (Kochia scoparia); [17]): 65
Plant response rating, Kochia (kochia (Kochia scoparia); [18]): 75
Plant response rating, Kochia (kochia (Kochia scoparia); [19]): 95
Plant response rating, Nutsedge, Yellow [6, 16]: 5
Plant response rating, Nutsedge, Yellow [6, 17]: 5
Plant response rating, Nutsedge, Yellow [6, 18]: 15
Plant response rating, Nutsedge, Yellow [6, 19]: 25
Plant response rating, Ragweed [7, 16]: 35
Plant response rating, Ragweed [7, 17]: 60
Plant response rating, Ragweed [7, 19]: 85
Plant response rating, Soybean (soybean (Glycine max); [16]): 30
Plant response rating, Soybean (soybean (Glycine max); [17]): 35
Plant response rating, Soybean (soybean (Glycine max); [18]): 35
Plant response rating, Soybean (soybean (Glycine max); [19]): 60
Plant response rating, Velvetleaf [8, 16]: 20
Plant response rating, Velvetleaf [8, 17]: 25
Plant response rating, Velvetleaf [8, 18]: 35
Plant response rating, Velvetleaf [8, 19]: 50

COc1nn(-c2ccc(C(F)(F)F)cc2)nc1Cc1ccnc(C(F)F)c1 [Compound 138]
Crabgrass, Large plant response rating [1, 9]: 90
Crabgrass, Large plant response rating [1, 10]: 90
Plant response rating, Crabgrass, Large [1, 24]: 90
Plant response rating, Crabgrass, Large [1, 25]: 90
Foxtail, Giant plant response rating [2, 9]: 90
Foxtail, Giant plant response rating [2, 10]: 90
Plant response rating, Foxtail, Giant [2, 24]: 100
Plant response rating, Foxtail, Giant [2, 25]: 100
Plant response rating, Morningglory [3, 13]: 100
Morningglory plant response rating [3, 14]: 100
Plant response rating, Morningglory ([3]; Preemergence, 125 g ai/ha, 0 to 100 scale where 0 is no effect and 100 is complete control): 70
Plant response rating, Morningglory ([3]; Preemergence, 500 g ai/ha, 0 to 100 scale (0 no effect, 100 complete control)): 90
Plant response rating, Sedge, Umbrella (0 to 100 scale, 0 is no effect, 100 is complete control) [4]: 90
Plant response rating, Ducksalad (0 to 100 scale, 0 is no effect, 100 is complete control) [5]: 90
Plant response rating, Kochia (kochia (Kochia scoparia); [16]): 95
Plant response rating, Kochia (kochia (Kochia scoparia); [17]): 95
Plant response rating, Kochia (kochia (Kochia scoparia); [18]): 98
Plant response rating, Kochia (kochia (Kochia scoparia); [19]): 98
Plant response rating, Kochia (kochia (Kochia scoparia); [20]): 55
Plant response rating, Kochia (kochia (Kochia scoparia); [21]): 65
Plant response rating, Kochia (kochia (Kochia scoparia); [22]): 85
Plant response rating, Kochia (kochia (Kochia scoparia); [23]): 90
Plant response rating, Nutsedge, Yellow [6, 16]: 10
Plant response rating, Nutsedge, Yellow [6, 17]: 10
Plant response rating, Nutsedge, Yellow [6, 18]: 15
Plant response rating, Nutsedge, Yellow [6, 19]: 20
Plant response rating, Nutsedge, Yellow [6, 20]: 5
Plant response rating, Nutsedge, Yellow [6, 22]: 5
Plant response rating, Nutsedge, Yellow [6, 23]: 5
Plant response rating, Ragweed [7, 16]: 75
Plant response rating, Ragweed [7, 17]: 80
Plant response rating, Ragweed [7, 18]: 85
Plant response rating, Ragweed [7, 19]: 85
Plant response rating, Ragweed [7, 20]: 40
Plant response rating, Ragweed [7, 21]: 45
Plant response rating, Ragweed [7, 22]: 50
Plant response rating, Ragweed [7, 23]: 50
Plant response rating, Soybean (soybean (Glycine max); [16]): 55
Plant response rating, Soybean (soybean (Glycine max); [17]): 70
Plant response rating, Soybean (soybean (Glycine max); [18]): 80
Plant response rating, Soybean (soybean (Glycine max); [19]): 80
Plant response rating, Soybean (soybean (Glycine max); [20]): 5
Plant response rating, Soybean (soybean (Glycine max); [21]): 20
Plant response rating, Soybean (soybean (Glycine max); [23]): 30
Plant response rating, Velvetleaf [8, 16]: 50
Plant response rating, Velvetleaf [8, 17]: 75
Plant response rating, Velvetleaf [8, 18]: 80
Plant response rating, Velvetleaf [8, 19]: 90
Plant response rating, Velvetleaf [8, 20]: 5
Plant response rating, Velvetleaf [8, 22]: 55
Plant response rating, Velvetleaf [8, 23]: 98
